ChEMBL document CHEMBL1136068 (Bioorg Med Chem Lett, 2003)
Each block holds one compound with its values, some of them ahead of it. Activity calls are given as the source filed them. The rule behind the calls is not given here.

How the values were obtained:
Estrogen receptor = Estrogen receptor (Homo sapiens, UniProt Q92731+P03372); experiment: Antagonist activity at estrogen (hER) receptor; Efficacy <20% and/or potency >[…] nM; type: functional
[1] = molecular target: T1, Mineralocorticoid receptor (Homo sapiens) (UniProt P08235); experiment: Antagonist activity at mineralocorticoid receptor (hMR); Efficacy <20% and/or potency >[…] nM; type: functional
T1 sequence (whole entry): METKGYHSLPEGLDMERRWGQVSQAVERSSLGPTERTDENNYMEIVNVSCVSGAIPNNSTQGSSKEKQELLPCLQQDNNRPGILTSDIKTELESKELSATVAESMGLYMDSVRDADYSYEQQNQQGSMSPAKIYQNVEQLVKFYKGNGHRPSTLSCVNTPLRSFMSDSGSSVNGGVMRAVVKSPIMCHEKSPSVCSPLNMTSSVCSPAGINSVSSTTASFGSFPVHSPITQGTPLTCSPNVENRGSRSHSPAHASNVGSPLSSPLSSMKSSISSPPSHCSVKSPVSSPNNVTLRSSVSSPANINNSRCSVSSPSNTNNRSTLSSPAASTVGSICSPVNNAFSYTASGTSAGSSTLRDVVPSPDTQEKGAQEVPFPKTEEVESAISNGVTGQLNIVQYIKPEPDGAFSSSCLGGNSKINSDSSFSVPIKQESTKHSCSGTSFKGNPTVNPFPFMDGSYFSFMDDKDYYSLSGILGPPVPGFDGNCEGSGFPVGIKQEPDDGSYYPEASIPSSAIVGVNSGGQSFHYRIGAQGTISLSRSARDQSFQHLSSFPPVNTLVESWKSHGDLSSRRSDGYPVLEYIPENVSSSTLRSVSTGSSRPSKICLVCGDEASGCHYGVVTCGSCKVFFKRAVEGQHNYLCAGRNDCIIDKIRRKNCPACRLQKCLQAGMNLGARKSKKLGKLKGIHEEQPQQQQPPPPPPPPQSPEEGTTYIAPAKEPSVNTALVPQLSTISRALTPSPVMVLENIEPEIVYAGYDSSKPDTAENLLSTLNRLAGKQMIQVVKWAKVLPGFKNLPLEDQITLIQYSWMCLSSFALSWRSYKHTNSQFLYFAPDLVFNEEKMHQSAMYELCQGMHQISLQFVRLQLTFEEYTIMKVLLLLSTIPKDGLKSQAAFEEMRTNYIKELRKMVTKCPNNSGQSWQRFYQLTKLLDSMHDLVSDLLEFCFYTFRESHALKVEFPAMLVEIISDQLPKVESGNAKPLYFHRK

[2] = molecular target: T2, Androgen receptor (Homo sapiens) (UniProt P10275); experiment: Antagonist efficacy at human androgen (hAR) receptor; not active; type: functional
T2 sequence (whole entry): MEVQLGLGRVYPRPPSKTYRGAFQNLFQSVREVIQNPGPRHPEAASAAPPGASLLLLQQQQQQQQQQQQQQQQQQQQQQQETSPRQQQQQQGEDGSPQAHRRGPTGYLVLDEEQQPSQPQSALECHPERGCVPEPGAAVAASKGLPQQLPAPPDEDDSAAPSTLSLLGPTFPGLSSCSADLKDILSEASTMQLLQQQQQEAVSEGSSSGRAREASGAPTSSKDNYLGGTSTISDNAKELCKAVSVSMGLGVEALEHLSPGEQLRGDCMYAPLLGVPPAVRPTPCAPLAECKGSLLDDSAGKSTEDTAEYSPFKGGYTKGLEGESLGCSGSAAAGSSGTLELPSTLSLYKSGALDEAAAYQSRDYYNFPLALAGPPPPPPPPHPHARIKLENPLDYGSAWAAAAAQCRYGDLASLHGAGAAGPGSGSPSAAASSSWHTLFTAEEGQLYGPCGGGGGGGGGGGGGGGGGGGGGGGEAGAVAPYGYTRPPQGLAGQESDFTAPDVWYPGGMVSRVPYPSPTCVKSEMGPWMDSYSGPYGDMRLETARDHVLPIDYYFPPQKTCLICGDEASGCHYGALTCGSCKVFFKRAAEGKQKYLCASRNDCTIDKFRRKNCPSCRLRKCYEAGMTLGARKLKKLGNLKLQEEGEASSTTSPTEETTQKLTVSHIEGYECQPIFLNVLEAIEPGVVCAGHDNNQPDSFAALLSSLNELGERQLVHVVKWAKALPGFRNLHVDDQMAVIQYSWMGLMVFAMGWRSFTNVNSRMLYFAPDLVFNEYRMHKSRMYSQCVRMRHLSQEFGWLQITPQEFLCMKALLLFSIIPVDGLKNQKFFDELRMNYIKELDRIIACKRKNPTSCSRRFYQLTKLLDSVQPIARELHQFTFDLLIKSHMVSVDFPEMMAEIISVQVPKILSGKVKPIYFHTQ

Androgen receptor [3] = molecular target: T3, Androgen receptor (Homo sapiens, UniProt P10275); experiment: Antagonist activity against Androgen receptor; not active; type: functional
T3 sequence (P10275 whole entry): T2 sequence (whole entry)

Androgen receptor [4] = molecular target: T3, Androgen receptor
[5] = molecular target: T4, Glucocorticoid receptor (Homo sapiens) (UniProt P04150); experiment: Antagonist efficacy at glucocorticoid (hGR) receptor; type: functional
T4 sequence (whole entry): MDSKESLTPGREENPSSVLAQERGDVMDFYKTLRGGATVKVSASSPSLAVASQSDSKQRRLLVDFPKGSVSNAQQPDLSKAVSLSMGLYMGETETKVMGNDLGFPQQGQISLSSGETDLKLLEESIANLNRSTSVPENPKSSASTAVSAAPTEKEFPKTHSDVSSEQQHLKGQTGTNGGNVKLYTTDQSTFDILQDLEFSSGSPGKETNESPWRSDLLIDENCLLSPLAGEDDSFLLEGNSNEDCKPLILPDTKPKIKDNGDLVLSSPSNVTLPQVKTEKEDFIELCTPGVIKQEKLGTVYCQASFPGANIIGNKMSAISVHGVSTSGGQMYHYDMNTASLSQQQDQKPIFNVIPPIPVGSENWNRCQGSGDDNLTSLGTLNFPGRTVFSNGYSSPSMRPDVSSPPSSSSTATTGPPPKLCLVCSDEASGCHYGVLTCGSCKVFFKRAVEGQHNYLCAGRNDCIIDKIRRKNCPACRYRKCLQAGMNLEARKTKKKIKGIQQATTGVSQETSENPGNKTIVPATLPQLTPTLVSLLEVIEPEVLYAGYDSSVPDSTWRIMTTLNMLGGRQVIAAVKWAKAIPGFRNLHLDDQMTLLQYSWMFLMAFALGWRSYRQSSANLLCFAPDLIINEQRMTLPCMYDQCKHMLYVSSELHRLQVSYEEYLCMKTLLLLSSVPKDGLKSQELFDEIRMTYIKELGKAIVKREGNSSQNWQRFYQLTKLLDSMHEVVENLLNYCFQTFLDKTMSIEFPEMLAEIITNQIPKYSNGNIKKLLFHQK

Glucocorticoid receptor = molecular target: T5, Glucocorticoid receptor (Homo sapiens, UniProt P04150)
T5 sequence (P04150 whole entry): T4 sequence (whole entry)

Efficacy (Estrogen receptor): inactive | Efficacy [1]: inactive
SMILES: CC/C(C)=C1\Oc2ccc(F)cc2-c2ccc3c(c21)C(C)=CC(C)(C)N3

Efficacy [2]: < 20% | IC50 (Androgen receptor [3]): > 1000 nM
SMILES: CC(C)=C/C=C1\Oc2ccc(F)cc2-c2ccc3c(c21)C(C)=CC(C)(C)N3

IC50 (Androgen receptor [4]): 6.1 nM | Efficacy [5]: 157%
SMILES: CC(=O)C[C@]1(C(C)=O)CC[C@H]2C3C[C@H](C)C4=CC(=O)CC[C@]4(C)[C@H]3CC[C@@]21C (stereo partly drawn)

SMILES: CC1=CC(C)(C)Nc2ccc3c(c21)/C(=C/Br)Oc1ccc(F)cc1-3
IC50 (Androgen receptor [4]): 250 nM | IC50 (Glucocorticoid receptor): > 1000 nM
